# “Also recorded” adds a separate entry of the source. Read-outs that look alike come from different tables or passages of the source.
# Columns and labels:
# [1] = tested on: E. coli DH5α transformed with recombinant bla CTX-M-15 (pQE-2-CTX-M-15); experiment: MIC by micro-dilution, β-lactams alone or with inhibitors; assay type: cell-based; conditions: for fold lowering of MIC of cefotaxime in combination with inhibitor: DH5α transformed with bla CTX-M-15; for MIC DH5α(pQE-2-CTX-M-15): E. coli DH5α with bla CTX-M-15 cloned from E. cloacae EC-15; for MIC DH5α(pQE-2-CTX-M-15) / MIC: in combinations clavulanic acid, sulbactam, tazobactam at 4 µg/ml; for MIC: Escherichia coli, read-out: MIC DH5α(pQE-2-CTX-M-15), E. coli DH5α with bla CTX-M-15 cloned from E. cloacae EC-15
# Protocol: E. coli DH5α and E. coli BL21 (DE3) were used for cloning and protein expression experiments, respectively. MICs were determined on E. coli DH5α transformed with cloned CTX-M-15 from Enterobacter cloacae clinical strain EC-15.
# The MICs for various antibiotics alone or in combination with various inhibitors (clavulanic acid, sulbactam, tazobactam and ZINC03787097) were determined by micro-dilution method and the results were interpreted according to Clinical Laboratory Standards Institute (CLSI) guidelines. Briefly, E. coli DH5α cells transformed with CTX-M-15 was treated with increasing concentrations of the antibiotics ranging from 0.5 to 2000 µg/ml in a series of two fold dilutions. The inhibitors clavulanic acid, sulbactam and tazobactam were used at a fixed concentration of 4 µg/ml, while ZINC03787097 was used at 20 µg/ml.
# CTX-M-15 [2] = target: T1, CTX-M-15 (Escherichia coli, UniProt Q9EXV5); experiment: Enzyme inhibition kinetics (acylation/deacylation, competition with nitrocefin); conditions: for K′: dissociation constant of the Henri-Michaelis complex; for k +2 x 10^−2: first-order acylation constant, values x 10^−2
# Description: (§1) The parameters k +2, k +3 and K′ are the first-order acylation and deacylation constants, and the dissociation constant of the Henri-Michaelis complex, respectively.
# (§2) where, v o, v t and v ss are the rates of utilization of the reporter substrate at times 0 and t, and after the steady-state has been established, respectively.
# (§3) The individual parameters, k +2, k +3 and K′, were derived from the dependence of k i upon inhibitor concentration, [C], on the basis of the following equation: [drawing 10]
# (§4) When the concentration of inhibitor [C] is well below K′, k i varies linearly the above equations is simplified as: [drawing 11]
# (§5) The k +2/K′ value is then obtained from the slope of the line, whereas k +3 is given by the intercept at [C] = 0. Conversely, if [C] is much larger than K′ (K m+[S])/K m, then k i = k +2+k +3, and is independent of [C]
# CTX-M-15 [3] = target: T1, CTX-M-15; experiment: IC50 determination, nitrocefin hydrolysis after 5 min pre-incubation; assay type: biochemical, Enterobacter cloacae; set-up: His tag (inferred from the pQE-2 vector and Ni-NTA purification); made in house; host or cells: E. coli BL21 (DE3); conditions: IC50, 5 min pre-incubation at 30°C; 100 µM nitrocefin
# Protocol: The 50% inhibitory concentration (IC50) was determined as the concentration of the inhibitor that inhibited hydrolytic activity of the enzyme by 50%.
# CTX-M-15 [4] = target: T1, CTX-M-15; assay type: biochemical, Enterobacter cloacae; set-up: His tag (inferred from the pQE-2 vector and Ni-NTA purification); made in house; host or cells: E. coli BL21 (DE3)
# CTX-M-15 [5] = target: T1, CTX-M-15; experiment: Stability of ZINC03787097 in the presence of CTX-M-15 (UV absorbance); assay type: biochemical, Enterobacter cloacae; set-up: His tag (inferred from the pQE-2 vector and Ni-NTA purification); made in house; host or cells: E. coli BL21 (DE3); conditions: 100 µM inhibitor, 10 nM CTX-M-15, 3600 seconds, absorbance at 283 nm and 222 nm
# Protocol: The UV absorption spectrum (320-210 nm) of ZINC03787097 (100 µM) alone or after 3600 seconds incubation with CTX-M-15 (10 nM) was measured in 50 mM phosphate buffer, pH 7.0 at 30°C on Shimadzu UV-VIS spectrophotometer (UV-1800). The stability of ZINC03787097 in the presence of CTX-M-15 was monitored by measuring the absorbance for 3600 seconds at 283 nm and 222 nm.
# CTX-M-15 [6] = target: T1, CTX-M-15; conditions: for k cat: 50 mM phosphate buffer pH 7.0, 30°C; for K m or K i: K m for good substrates, for poor substrates (ceftazidime, cefepime, aztreonam) determined as K i against 100 µM nitrocefin
# Protocol: The inhibitors used were Clavulanic acid, Sulabctam, Tazobactam and ZINC03787097.
# Hydrolysis of β-lactam antibiotics was detected by monitoring the variation in the absorbance due to cleavage of β-lactam ring in 50 mM phosphate buffer, pH 7.0 [28]. All the measurements were taken in triplicate on Shimadzu UV-VIS spectrophotometer (UV-1800). The reaction was performed in a total volume of 500 µl at 30°C. For dilution of the enzyme and to prevent denaturation, BSA was added to a final concentration of 20 µg/ml.
# [7] = tested on: E. coli DH5α (Null Plasmid); experiment: MIC by micro-dilution, null plasmid control strain; assay type: cell-based; conditions: Escherichia coli, read-out: MIC DH5α(Null Plasmid)
# [8] = tested on: CC(C)(O/N=C(\C(=O)N[C@@H]1C(=O)N2C(C(=O)[O-])=C(C[n+]3ccccc3)CS[C@H]12)c1csc(N)n1)C(=O)O; experiment: purified protein, by the assay type; conditions: other: 50 mM phosphate buffer pH 7.0, 30°C
# [9] = tested on: CC1(C)S[C@@H]2[C@H](NC(=O)[C@H](N)c3ccccc3)C(=O)N2[C@H]1C(=O)O; experiment: purified protein, by the assay type; conditions: other: 50 mM phosphate buffer pH 7.0, 30°C
# [10] = tested on: CCN1CCN(C(=O)N[C@@H](C(=O)N[C@@H]2C(=O)N3[C@@H]2SC(C)(C)[C@@H]3C(=O)O)c2ccccc2)C(=O)C1=O; experiment: purified protein, by the assay type; conditions: other: 50 mM phosphate buffer pH 7.0, 30°C
# [11] = tested on: CO/N=C(\C(=O)N[C@@H]1C(=O)N2C(C(=O)O)=C(COC(C)=O)CS[C@H]12)c1csc(N)n1; experiment: purified protein, by the assay type; conditions: other: 50 mM phosphate buffer pH 7.0, 30°C
# [12] = tested on: CO/N=C(\C(=O)N[C@@H]1C(=O)N2C(C(=O)O)=C(COC(N)=O)CS[C@H]12)c1ccco1; experiment: purified protein, by the assay type; conditions: other: 50 mM phosphate buffer pH 7.0, 30°C
# [13] = tested on: CO/N=C(\C(=O)N[C@@H]1C(=O)N2C(C(=O)O)=C(CSc3nc(=O)c(=O)[nH]n3C)CS[C@H]12)c1csc(N)n1; experiment: purified protein, by the assay type; conditions: other: 50 mM phosphate buffer pH 7.0, 30°C
# [14] = tested on: C[C@]1(Cn2ccnn2)[C@H](C(=O)O)N2C(=O)C[C@H]2S1(=O)=O; experiment: purified protein, by the assay type; conditions: other: slope of k i versus inhibitor concentration
# Description: as §1, §2, §3, §4, §5
# [15] = tested on: O=C(Cc1cccs1)N[C@@H]1C(=O)N2C(C(=O)O)=C(/C=C/c3ccc([N+](=O)[O-])cc3[N+](=O)[O-])CS[C@H]12; experiment: purified protein, by the assay type; conditions: other: 50 mM phosphate buffer pH 7.0, 30°C
# [16] = K i calculated as K i = k +3 K/k +2, calculated value
# [17] = K i, determined at steady-state, competition with 100 µM nitrocefin
# [18] = in combinations clavulanic acid, sulbactam, tazobactam at 4 µg/ml, ZINC03787097 at 20 µg/ml
compound,measurement,setting,value
O=C(O)[C@H]1/C(=C/CO)O[C@@H]2CC(=O)N21 [Clavulanic acid],fold lowering of MIC of cefotaxime in combination with inhibitor,[1],16 fold
same,Ki,CTX-M-15 [2]; [16],0.106 µM
same,Ki,CTX-M-15 [2]; [17],0.099 µM
same,K′,CTX-M-15 [2],0.72 µM
same,k +2 x 10^−2,CTX-M-15 [2],1.3 s^−1
same,IC50,CTX-M-15 [3],0.014 µM
CC#CCC(C)C(O)C=CC1C(O)CC2Oc3c(CCCC(=O)O)cccc3C21 (stereo not drawn) [ZINC03787097],fold lowering of MIC of cefotaxime in combination with inhibitor,[1],2 fold
same,effect on MICs of antibiotics of cephalosporin group,[1]; ZINC03787097 at 20 µg/ml,reduced in the presence of ZINC03787097 to a level observed in the case of antibiotic-sulbactam combination
same,Ki,CTX-M-15 [2]; [17],0.388 µM
same,IC50,CTX-M-15 [3],0.18 µM
same,K m for nitrocefin hydrolysis in the presence of inhibitor,"CTX-M-15 [4]; 0.25 µM ZINC03787097, 0.50 nM CTX-M-15",67 µM
same,K m for nitrocefin hydrolysis in the presence of inhibitor,"CTX-M-15 [4]; 0.50 µM ZINC03787097, 0.50 nM CTX-M-15",94 µM
same,K m for nitrocefin hydrolysis in the presence of inhibitor,"CTX-M-15 [4]; 0.75 µM ZINC03787097, 0.50 nM CTX-M-15",96 µM
same,mode of inhibition,CTX-M-15 [4]; Lineweaver-Burg plot,reversible inhibitor; also recorded: competitive inhibition
same,Vmax of nitrocefin hydrolysis,CTX-M-15 [4]; similar at 0.00-0.75 µM ZINC03787097,3.22e-07 M/s
same,hydrolysis of inhibitor by CTX-M-15,CTX-M-15 [5],no detectable hydrolysis; also recorded: negligible hydrolysis
O=C(Cc1cccs1)N[C@@H]1C(=O)N2C(C(=O)O)=C(/C=C/c3ccc([N+](=O)[O-])cc3[N+](=O)[O-])CS[C@H]12 [Nitrocefin],k cat,CTX-M-15 [6],582 s⁻¹
same,K m or K i,CTX-M-15 [6],35 ± 4 µM
same,K m for nitrocefin hydrolysis,"CTX-M-15 [4]; 0.00 µM ZINC03787097, 0.50 nM CTX-M-15",42 µM
CO/N=C(\C(=O)N[C@@H]1C(=O)N2C(C(=O)O)=C(COC(C)=O)CS[C@H]12)c1csc(N)n1 [Cefotaxime],MIC DH5α(pQE-2-CTX-M-15),"[1]; ZINC03787097 at 20 µg/ml, listed as Cefotaxime (III)",512 µg/ml
same,MIC,[1]; ZINC03787097 at 20 µg/ml,500 to 1000 µg/mL
same,MIC,[7]; [18],0.25 µg/mL
same,K m or K i,CTX-M-15 [6],60 ± 3 µM
CC1(C)[C@H](C(=O)O)N2C(=O)C[C@H]2S1(=O)=O [Sulbactam],fold lowering of MIC of cefotaxime in combination with inhibitor,[1],2 fold
same,Ki,CTX-M-15 [2]; [16],0.131 µM
same,Ki,CTX-M-15 [2]; [17],0.062 µM
same,K′,CTX-M-15 [2],0.55 µM
same,k +2 x 10^−2,CTX-M-15 [2],1.6 s^−1
same,IC50,CTX-M-15 [3],0.212 µM
C[C@]1(Cn2ccnn2)[C@H](C(=O)O)N2C(=O)C[C@H]2S1(=O)=O [Tazobactam],fold lowering of MIC of cefotaxime in combination with inhibitor,[1],8 fold
same,fold reduction of MICs of β-lactam antibiotics,[1]; inhibitor in combination with β-lactam antibiotics,2–16 folds
same,Ki,CTX-M-15 [2]; [16],0.013 µM
same,Ki,CTX-M-15 [2]; [17],0.017 µM
same,K′,CTX-M-15 [2],0.03 µM
same,k +2 x 10^−2,CTX-M-15 [2],1.3 s^−1
same,IC50,CTX-M-15 [3],0.001 µM
CTX-M-15 (Escherichia coli),kcat,[8],1.51 ± 0.03 s⁻¹
same,kcat/Km,[8],1200 M⁻¹ s⁻¹
same,kcat,[9],57 ± 3 s⁻¹
same,kcat/Km,[9],3.8e+06 M⁻¹ s⁻¹
same,kcat,[10],58 ± 4 s⁻¹
same,kcat/Km,[10],1.8e+06 M⁻¹ s⁻¹
same,kcat,[11],222 ± 7 s⁻¹
same,kcat/Km,[11],3.7e+06 M⁻¹ s⁻¹
same,kcat,[12],87 ± 2 s⁻¹
same,kcat/Km,[12],3e+06 M⁻¹ s⁻¹
same,kcat,[13],82 ± 5 s⁻¹
same,kcat/Km,[13],2.5e+06 M⁻¹ s⁻¹
same,kcat/Km,[14],440000 M⁻¹ s⁻¹
same,kcat,[15],582 s⁻¹
same,kcat/Km,[15],1.66e+07 M⁻¹ s⁻¹
CO/N=C(\C(=O)N[C@@H]1C(=O)N2C(C(=O)O)=C(COC(N)=O)CS[C@H]12)c1ccco1 [Cefuroxime],MIC,[7]; [18],1 µg/mL
same,K m or K i,CTX-M-15 [6],29 ± 2 µM
Cc1nnc(SCC2=C(C(=O)O)N3C(=O)[C@@H](NC(=O)Cn4cnnn4)[C@H]3SC2)s1 [Cefazolin],MIC,[7],2 µg/mL
CO/N=C(\C(=O)N[C@@H]1C(=O)N2C(C(=O)[O-])=C(C[N+]3(C)CCCC3)CS[C@H]12)c1csc(N)n1 [Cefepime],MIC DH5α(pQE-2-CTX-M-15),"[1]; ZINC03787097 at 20 µg/ml, listed as Cefepime (IV)",128 µg/ml
same,MIC,[1]; ZINC03787097 at 20 µg/ml,125 µg/mL
same,MIC,[7],0.25 µg/mL
CO/N=C(\C(=O)N[C@@H]1C(=O)N2C(C(=O)O)=C(CSc3nc(=O)c(=O)[nH]n3C)CS[C@H]12)c1csc(N)n1 [Ceftriaxone],MIC,[7]; [18],0.06 µg/mL
same,K m or K i,CTX-M-15 [6],33 ± 2 µM
C[C@H]1[C@H](NC(=O)/C(=N\OC(C)(C)C(=O)O)c2csc(N)n2)C(=O)N1S(=O)(=O)O [Aztreonam],MIC,[1]; ZINC03787097 at 20 µg/ml,16 µg/mL
same,MIC,[7],0.25 µg/mL
CCN1CCN(C(=O)N[C@@H](C(=O)N[C@@H]2C(=O)N3[C@@H]2SC(C)(C)[C@@H]3C(=O)O)c2ccccc2)C(=O)C1=O [Piperacillin],MIC,[7]; [18],1 µg/mL
same,K m or K i,CTX-M-15 [6],32 ± 5 µM
CC(C)(O/N=C(\C(=O)N[C@@H]1C(=O)N2C(C(=O)[O-])=C(C[n+]3ccccc3)CS[C@H]12)c1csc(N)n1)C(=O)O [Ceftazidime],MIC,[1]; ZINC03787097 at 20 µg/ml,4 µg/mL
same,MIC,[7]; [18],0.25 µg/mL
same,k cat,CTX-M-15 [6],1.51 s⁻¹
same,K m or K i,CTX-M-15 [6],1209 µM
same,K m or K i,CTX-M-15 [6]; listed as Ceftazidime (III),1209 ± 91 µM
CO[C@@]1(NC(=O)Cc2cccs2)C(=O)N2C(C(=O)O)=C(COC(N)=O)CS[C@@H]21 [Cefoxitin],MIC,[1]; ZINC03787097 at 20 µg/ml,16 µg/mL
same,MIC,[7]; [18],2 µg/mL
CC1(C)S[C@@H]2[C@H](NC(=O)[C@H](N)c3ccccc3)C(=O)N2[C@H]1C(=O)O [Ampicillin],MIC,[7]; [18],2 µg/mL
same,K m or K i,CTX-M-15 [6],15 ± 2 µM

# Reference: publication PMC3578935, “Biochemical Characterization of CTX-M-15 from Enterobacter cloacae and Designing a Novel Non-β-Lactam-β-Lactamase Inhibitor” (PLoS ONE, 2013)
